Reference: paper PMC7346179, “Fe Porphyrin-Based SOD Mimic and Redox-Active Compound, (OH)FeTnHex-2-PyP^4+, in a Rodent Ischemic Stroke (MCAO) Model: Efficacy and Pharmacokinetics as Compared to Its Mn Analogue, (H2O)MnTnHex-2-PyP^5+” (Antioxidants, 2020)

Key:
[1] = 3-day PK study in healthy mice; type: in vivo; details: for liver level: 6 h after last injection
Experimental: Samples were prepared as described in [10] with modifications to accommodate the small tissue sizes and enhance the detection sensitivity. Quantitative liquid chromatography electrospray-ionization tandem mass spectrometry (LCMS/MS) analysis was performed on a Shimadzu 20A series HPLC (LC)—Applied Biosystems/MDS Sciex API 3200 QTrap or API 4000 QTrap tandem-mass spectrometer (MS/MS) as described earlier. The use of heptafluorobutyric acid (HFBA) mobile phase modifier as an ion-pairing agent increases the overall lipophilicity and volatility, which increases the retention and ionization efficiency of the analytes, affording an abundance of HFBA-associated ions. […] Since oxygen atoms are buried within the porphyrin cavity and thus not easily solvated, these compounds maintain similar redox properties and lipophilicity as their parent hexyl analogs, which makes them co-elute from the HPLC column and thus can be used as internal standards. (OH)FeTnBuOE-2-PyP^4+ was prepared as described for other Fe(III) N-alkylpyridylporphyrins and analogous (H2O)MnTnBuOE-2-PyP^5+ [13, 16]. The solvents employed were: A = 95:5 H2O:MeCN (0.1% HFBA); B = MeCN (0.1% HFBA). […] With the chosen solvent system, all four atropoisomers collapsed into a single peak, enhancing the sensitivity of the method to as low as 0.5 nM (nanomoles per L of tissue homogenate). Analyses were performed using a Phenomenex Luna C18 guard cartridge (ID × L, 2 × 4 mm) only. […] Their structures are also shown. Calibration samples in the 1–300 nM or 0.1–30 μM range (depending on the expected levels of MP) were prepared by adding known amounts of serially diluted pure standards into the plasma or homogenates of related tissues. The response was calculated as the ratio between the standard peak area and the internal standard peak area.
The study was designed to follow the dosing regime in a 3-day mouse MCAO efficacy study. […] Three mice were used per compound in each study. Mice were sacrificed 6 h after the last injection at day 3 and blood and tissues (liver and brain) collected. Blood was centrifuged at 2500 rpm for 10 min and plasma was harvested. Plasma and tissues were analyzed on porphyrin content by LCMS/MS.

[2] = test system: mouse MCAO stroke model; assay: 3-day mouse MCAO efficacy study; type: in vivo, mice
Experimental: We performed a mouse MCAO study to define a dose of FeHex for a larger rat MCAO study. The 81 C57Bl/6J mice (8–10 weeks old) were subjected to 90 min of MCAO right hemisphere occlusion. Mice were fasted overnight before injury. They were under isoflurane anesthesia during ischemia, and the pericranial temperature was automatically controlled at 37 °C using a surface heating and cooling system. Ischemia was made through a small window on the left temporal bone, and the main trunk of the middle cerebral artery was transiently tied with a fine silk suture for 90 min. Muscle and skin layers were closed after ischemia/reperfusion. Mice were allowed to awake and survive for 3 days. […] Mice were sacrificed under deep anesthesia at 3 days post-ischemia/reperfusion. The brain was quickly frozen in −20 °C 2-methybutane and stored in the freezer for histological analysis. Liver and brain were taken for LCMS/MS analysis of the levels of FeHex. Body weight, rotarod performance, and Corner test were assessed before and 3 days after injury. Neurological deficit (neuroscore) and infarct volume were evaluated at 3 days after injury.
The rotarod test was performed on the day before surgery and 3 days after ischemia/reperfusion. Three trials were performed with a 15-min intra-trial rest. Mice were placed on the rod and then the machine was started. The speed was accelerated from 4 turns/min to 40 turns per min. The latency to fall from the rod was automatically recorded. The data are presented in % and are calculated as [(reading after injury)/(reading before surgery-baseline reading)] × 100. Neurological deficit was assessed based on the neuroscore system we previously used that includes the general status and motor and sensory functions. For the corner test, two clean boards were placed in “V” fashion at an angle of 30° relative to the walking axes and mice were left to walk in towards the apex of the “V”. Mice usually make left turns more frequently when injury is severe enough. The left turn was calculated from the number of left (L) turn/total turns (L + Right turn). Normal animals would have as many left as right turns (50% = normal). When all turns are to the left, the value at y-axis is 100%, the most severe score. Body weight loss is expressed as a difference in body weight at 3 days post-stroke minus body weight on the surgery day.

[3] = test system: rat MCAO stroke model; assay: 7-day rat MCAO efficacy study; type: in vivo, rats; details: 0.225 mg/kg twice per day 7 days
Experimental: The 7-day rat MCAO study was done as described in [9]. The 250–275 g Wistar rats were used as another species is a requirement for preclinical stroke research. The duration of the right MCAO was 90 min. […] The first dose was given IV slowly via the […] at 5 min after ischemia/reperfusion. The following doses were given SC. At day 7 post-injury, a person blinded to the treatment groups assessed the neurological deficit and then brains were harvested for infarct volume measurements.

[4] = cited from earlier work
[5] = test system: mice; details: mouse, in vivo, cited from earlier work
[6] = test system: mice; details: cited from earlier work
[7] = SC and IV 0.5 mg/kg twice daily 3 days
[8] = 0.225 mg/kg IV twice daily 3 days

Q: Which results are given for “monohydroxo Fe(III) meso-tetrakis(N-n-hexylpyridinium-2yl)porphyrin [FeHex]”?
A: liver level ([1]; IV 0.5 mg/kg twice daily 3 days): 290 nM; liver level ([1]; SC 0.5 mg/kg twice daily 3 days): 126 nM; liver levels relative to MnHex [1, 7]: much lower levels; plasma levels relative to MnHex [1, 7]: Higher levels; neuroscore [2, 8]: improved; p, Corner test vs vehicle [2, 8]: 0.09; p, body weight change vs vehicle [2, 8]: 0.0347; p, infarct volume vs vehicle [2, 8]: 0.48; p, neuroscore vs vehicle [2, 8]: 0.047; p, rotarod vs vehicle [2, 8]: 0.59; body weights ([2]; 0.225 mg/kg IV twice daily 3 days, from 90 min post ischemia/reperfusion): improved; infarct volume relative to vehicle ([2]; 0.05, 0.225 and 1 mg/kg IV twice daily 3 days): No significant change; p, cortex infarct volume vs vehicle [3]: 0.48; p, neuroscore vs vehicle [3]: 0.28; p, subcortex infarct volume vs vehicle [3]: 0.11; p, total infarct volume vs vehicle [3]: 0.31; neurological deficit (neuroscore and infarct volume) ([3]; first dose IV, then SC): only slightly, but insignificantly, improved; log kcat(O2^•−), log of rate constant for catalysis of O2^•− dismutation [4]: 7.53; blood pressure drop ([5]; ip, 10 mg/kg): does not; arterial hypotension in experimental animals [5]: does not cause arterial hypotension; toxicity to mice relative to MnHex [6]: less toxic to mice; toxicity / death of mice ([6]; mice, 5 mg/kg IP injection): no toxicity
